Data as given in ChEMBL document CHEMBL1201862, “PubChem BioAssay data set” (2004).
Calls of active or inactive are those of the source.

Columns and labels:
[1] = inhibitors of firefly luciferase expression or activity, dose response, H4 neuroglioma cells, luminescence (AID 1990); type: functional, cell-based
[2] = test system: CHO; assay: cytotoxicity in TLR9-MyD88 CHO cells, dose response, cytotoxicity control for TLR9-MyD88 binding inhibitor project, cell-based, luminescence (AID 588339); type: functional, hamster; conditions: Cricetulus griseus;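 further: CHO cells stably coexpressing TLR9 and MyD88 fusions from primary screen; compound exposure lasted 48 hours before viability readout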
[3] = target: Beta Lactamase (Pseudomonas aeruginosa, UniProt Q932Y6); assay: beta-lactamase reporter inhibitor potency, dose response, artefact control for TLR9-MyD88 binding inhibitor project, BLA reporter cells, FRET fluorescence (AID 588341); type: cell-based;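 further: cell based assay in CHO-K1 cells stably expressing beta-lactamase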
[4] = target: Genome polyprotein (dengue virus type 2, UniProt P29990); assay: Dengue-2 NS5 methyltransferase inhibitors, primary screen, biochemical, confirmation dose response (AID 588689); type: functional
Genome polyprotein, sequence (P29990 2492-3391 limits assumed): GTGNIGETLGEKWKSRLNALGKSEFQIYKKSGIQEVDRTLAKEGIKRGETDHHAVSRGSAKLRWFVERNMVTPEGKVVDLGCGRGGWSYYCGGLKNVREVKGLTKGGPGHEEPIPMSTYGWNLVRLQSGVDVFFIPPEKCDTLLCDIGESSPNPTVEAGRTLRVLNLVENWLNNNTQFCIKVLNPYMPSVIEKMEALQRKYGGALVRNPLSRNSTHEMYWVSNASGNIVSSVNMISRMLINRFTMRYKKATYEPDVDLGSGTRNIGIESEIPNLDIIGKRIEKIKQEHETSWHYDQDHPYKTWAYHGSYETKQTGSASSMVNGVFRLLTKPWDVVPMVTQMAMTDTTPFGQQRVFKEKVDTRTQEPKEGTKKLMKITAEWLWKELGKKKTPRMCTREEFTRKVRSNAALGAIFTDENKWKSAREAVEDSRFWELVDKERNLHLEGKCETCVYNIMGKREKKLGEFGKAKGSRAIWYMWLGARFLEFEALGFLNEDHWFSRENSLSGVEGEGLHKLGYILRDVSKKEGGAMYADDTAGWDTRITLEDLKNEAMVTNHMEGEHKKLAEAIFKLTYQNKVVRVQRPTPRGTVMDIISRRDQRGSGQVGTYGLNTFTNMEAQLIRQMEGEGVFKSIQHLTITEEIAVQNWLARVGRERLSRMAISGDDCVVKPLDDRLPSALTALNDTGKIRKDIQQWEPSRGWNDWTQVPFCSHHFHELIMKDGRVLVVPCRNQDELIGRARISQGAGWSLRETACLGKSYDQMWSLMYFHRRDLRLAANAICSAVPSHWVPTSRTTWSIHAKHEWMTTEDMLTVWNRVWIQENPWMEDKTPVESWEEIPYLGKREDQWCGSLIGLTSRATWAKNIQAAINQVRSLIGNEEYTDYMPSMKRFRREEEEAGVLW

[5] = target: Intestinal-type alkaline phosphatase (Homo sapiens, UniProt P09923); assay: activation of human intestinal alkaline phosphatase – biochemical, dose response (AID 488873); type: functional
Intestinal-type alkaline phosphatase (Homo sapiens, UniProt P09923), sequence (P09923 whole entry): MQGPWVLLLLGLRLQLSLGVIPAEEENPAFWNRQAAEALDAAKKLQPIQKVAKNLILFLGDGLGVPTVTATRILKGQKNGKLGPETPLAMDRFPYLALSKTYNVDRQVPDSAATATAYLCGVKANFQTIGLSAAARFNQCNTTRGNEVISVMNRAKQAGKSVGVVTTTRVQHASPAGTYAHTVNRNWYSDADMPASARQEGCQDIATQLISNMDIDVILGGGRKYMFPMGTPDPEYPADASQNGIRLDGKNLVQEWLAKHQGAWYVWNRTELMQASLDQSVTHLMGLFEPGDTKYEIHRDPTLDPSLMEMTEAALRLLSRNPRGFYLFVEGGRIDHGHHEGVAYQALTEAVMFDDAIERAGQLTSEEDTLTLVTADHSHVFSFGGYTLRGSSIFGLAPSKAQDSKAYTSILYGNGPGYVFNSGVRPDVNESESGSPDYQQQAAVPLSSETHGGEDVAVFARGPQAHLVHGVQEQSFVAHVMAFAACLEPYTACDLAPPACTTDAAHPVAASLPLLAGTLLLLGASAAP

[6] = target: Intestinal-type alkaline phosphatase (Mus musculus, UniProt P24822); assay: mouse intestinal alkaline phosphatase activators, dose response, biochemical, luminescence, uHTS hits (AID 488783); type: functional
[7] = target: Ribosomal protein S6 kinase alpha-3 (Homo sapiens, UniProt P51812); type: functional;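 further: measured within a kinome-wide profiling panel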
[8] = target: Phosphorylase b kinase gamma catalytic chain, liver/testis isoform (Homo sapiens, UniProt P15735); type: functional;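 further: PHKG2 measured as one member of a kinome-wide kinase panel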
[9] = target: Protein kinase C delta type (Homo sapiens, UniProt Q05655); type: functional
[10] = target: Serine/threonine-protein kinase D2 (Homo sapiens, UniProt Q9BZL6); type: functional;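 further: measured against PRKD2 as one member of a kinome-wide kinase profiling panel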
[11] = target: Calcium/calmodulin-dependent protein kinase type II subunit gamma (Homo sapiens, UniProt Q13555); type: functional
Calcium/calmodulin-dependent protein kinase type II subunit gamma, sequence (Q13555 whole entry): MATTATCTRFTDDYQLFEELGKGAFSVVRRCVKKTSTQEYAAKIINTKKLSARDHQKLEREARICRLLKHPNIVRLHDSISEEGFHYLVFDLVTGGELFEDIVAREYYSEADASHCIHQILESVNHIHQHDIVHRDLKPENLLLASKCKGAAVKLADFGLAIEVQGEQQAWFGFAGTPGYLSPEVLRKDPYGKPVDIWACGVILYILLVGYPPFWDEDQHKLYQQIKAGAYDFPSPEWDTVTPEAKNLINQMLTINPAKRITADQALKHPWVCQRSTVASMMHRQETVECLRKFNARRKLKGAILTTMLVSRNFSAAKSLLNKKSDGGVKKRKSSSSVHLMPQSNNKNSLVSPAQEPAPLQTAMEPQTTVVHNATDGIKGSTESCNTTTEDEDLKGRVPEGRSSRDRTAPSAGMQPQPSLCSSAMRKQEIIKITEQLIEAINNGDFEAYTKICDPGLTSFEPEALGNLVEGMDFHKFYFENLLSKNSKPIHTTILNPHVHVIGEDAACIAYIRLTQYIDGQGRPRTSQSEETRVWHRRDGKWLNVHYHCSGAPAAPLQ

[12] = target: Rho-associated protein kinase 2 (Homo sapiens, UniProt O75116); type: functional
[13] = target: Mitogen-activated protein kinase 8 (Homo sapiens, UniProt P45983); type: functional;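 further: value comes from one member of a kinome-wide kinase profiling panel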
Mitogen-activated protein kinase 8, sequence (P45983 whole entry): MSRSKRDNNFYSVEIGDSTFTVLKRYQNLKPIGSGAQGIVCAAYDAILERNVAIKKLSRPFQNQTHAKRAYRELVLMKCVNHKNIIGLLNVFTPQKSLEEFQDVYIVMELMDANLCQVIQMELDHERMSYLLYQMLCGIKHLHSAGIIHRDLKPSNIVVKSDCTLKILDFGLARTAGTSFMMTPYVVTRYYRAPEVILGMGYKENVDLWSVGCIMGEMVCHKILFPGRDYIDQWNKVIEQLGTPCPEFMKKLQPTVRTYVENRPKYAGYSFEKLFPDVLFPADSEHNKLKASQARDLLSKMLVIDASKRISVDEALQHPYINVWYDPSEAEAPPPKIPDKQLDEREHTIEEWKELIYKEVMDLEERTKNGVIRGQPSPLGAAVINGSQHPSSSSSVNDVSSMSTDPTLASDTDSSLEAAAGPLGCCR

[14] = target: MAP kinase-activated protein kinase 2 (Homo sapiens, UniProt P49137); type: functional;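 further: measured as one member of a kinome-wide kinase panel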
[15] = target: Casein kinase II subunit alpha (Homo sapiens, UniProt P68400); type: functional
Casein kinase II subunit alpha, sequence (P68400 whole entry): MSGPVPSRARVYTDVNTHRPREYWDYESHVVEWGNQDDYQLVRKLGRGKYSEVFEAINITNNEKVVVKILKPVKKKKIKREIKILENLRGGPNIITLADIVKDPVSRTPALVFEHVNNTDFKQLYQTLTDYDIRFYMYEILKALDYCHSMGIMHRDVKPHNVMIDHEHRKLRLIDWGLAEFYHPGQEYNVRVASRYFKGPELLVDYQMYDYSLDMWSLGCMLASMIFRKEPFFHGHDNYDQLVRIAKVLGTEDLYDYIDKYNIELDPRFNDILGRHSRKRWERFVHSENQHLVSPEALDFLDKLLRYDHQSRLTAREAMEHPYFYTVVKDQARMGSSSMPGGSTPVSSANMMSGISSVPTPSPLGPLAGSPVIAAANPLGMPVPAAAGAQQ

[16] = target: Calcium/calmodulin-dependent protein kinase type II subunit delta (Homo sapiens, UniProt Q13557); type: functional
Calcium/calmodulin-dependent protein kinase type II subunit delta, sequence (Q13557 whole entry): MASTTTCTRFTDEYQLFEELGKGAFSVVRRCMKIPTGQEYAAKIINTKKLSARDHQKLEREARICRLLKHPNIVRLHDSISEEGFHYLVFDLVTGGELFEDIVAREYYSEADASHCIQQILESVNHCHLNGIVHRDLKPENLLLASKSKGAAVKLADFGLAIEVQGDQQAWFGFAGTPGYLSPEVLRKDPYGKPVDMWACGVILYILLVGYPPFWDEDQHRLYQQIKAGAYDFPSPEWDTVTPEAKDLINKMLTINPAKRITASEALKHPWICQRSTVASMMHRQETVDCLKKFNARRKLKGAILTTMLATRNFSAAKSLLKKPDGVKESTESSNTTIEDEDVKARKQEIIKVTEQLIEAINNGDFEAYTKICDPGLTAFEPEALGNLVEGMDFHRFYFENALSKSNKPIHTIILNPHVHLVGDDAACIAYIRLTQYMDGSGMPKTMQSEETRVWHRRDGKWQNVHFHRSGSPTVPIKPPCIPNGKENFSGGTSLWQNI

[17] = target: Fibroblast growth factor receptor 1 (Homo sapiens, UniProt P11362); type: functional
[18] = target: Tyrosine-protein kinase JAK3 (Homo sapiens, UniProt P52333); type: functional
[19] = target: Casein kinase I isoform gamma-1 (Homo sapiens, UniProt Q9HCP0); type: functional;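 further: measured as the CSNK1G1 member of a kinome profiling panel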
[20] = target: Proto-oncogene tyrosine-protein kinase ROS (Homo sapiens, UniProt P08922); type: functional;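 further: ROS1 tested as one member of a kinome-wide kinase panel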
[21] = target: Testis-specific serine/threonine-protein kinase 1 (Homo sapiens, UniProt Q9BXA7); type: functional
[22] = target: MAP/microtubule affinity-regulating kinase 3 (Homo sapiens, UniProt P27448); type: functional;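 further: MARK3 affinity measured as one member of a kinome panel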
[23] = target: Proto-oncogene tyrosine-protein kinase Src (Homo sapiens, UniProt P12931); type: functional;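 further: SRC entry within a kinome-wide kinase profiling panel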
[24] = target: Glycogen synthase kinase-3 alpha (Homo sapiens, UniProt P49840); type: functional;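 further: GSK3A result taken from a broad kinome-wide kinase panel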
Glycogen synthase kinase-3 alpha, sequence (P49840 whole entry): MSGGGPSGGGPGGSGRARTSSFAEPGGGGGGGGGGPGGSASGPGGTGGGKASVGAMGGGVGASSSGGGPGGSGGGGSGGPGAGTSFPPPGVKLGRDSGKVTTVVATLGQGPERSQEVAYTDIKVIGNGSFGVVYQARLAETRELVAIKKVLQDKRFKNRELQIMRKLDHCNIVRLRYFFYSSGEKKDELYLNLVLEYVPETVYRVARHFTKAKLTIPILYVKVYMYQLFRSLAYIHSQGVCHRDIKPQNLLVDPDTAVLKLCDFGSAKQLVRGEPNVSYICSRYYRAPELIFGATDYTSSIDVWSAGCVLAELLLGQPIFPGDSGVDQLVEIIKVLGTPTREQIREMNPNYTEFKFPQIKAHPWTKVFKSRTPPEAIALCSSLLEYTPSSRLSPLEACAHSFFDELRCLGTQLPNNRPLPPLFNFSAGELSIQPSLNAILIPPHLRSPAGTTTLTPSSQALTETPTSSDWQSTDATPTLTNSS

[25] = target: Receptor tyrosine-protein kinase erbB-2 (Homo sapiens, UniProt P04626); assay: Navigating the Kinome. Panel member name: ERBB2; type: functional
[26] = target: T1, Serine/threonine-protein kinase Chk1 (Homo sapiens, UniProt O14757); type: functional;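 further: measured as one member of a kinome-wide kinase profiling panel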
T1 sequence (O14757 whole entry): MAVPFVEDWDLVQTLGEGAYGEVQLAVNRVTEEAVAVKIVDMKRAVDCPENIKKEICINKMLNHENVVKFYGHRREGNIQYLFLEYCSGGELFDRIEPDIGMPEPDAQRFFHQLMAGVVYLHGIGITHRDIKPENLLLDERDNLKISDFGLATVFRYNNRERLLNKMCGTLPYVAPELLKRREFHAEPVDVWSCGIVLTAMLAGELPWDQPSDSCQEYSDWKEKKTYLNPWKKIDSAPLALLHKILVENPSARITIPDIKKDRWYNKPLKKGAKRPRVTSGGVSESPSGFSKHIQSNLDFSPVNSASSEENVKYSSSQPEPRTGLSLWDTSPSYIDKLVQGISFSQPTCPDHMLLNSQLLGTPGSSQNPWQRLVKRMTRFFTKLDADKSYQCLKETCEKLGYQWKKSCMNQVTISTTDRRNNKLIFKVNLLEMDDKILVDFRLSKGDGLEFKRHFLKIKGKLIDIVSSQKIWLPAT

[27] = target: Aurora kinase B (Homo sapiens, UniProt Q96GD4); type: functional
[28] = target: Interleukin-1 receptor-associated kinase 4 (Homo sapiens, UniProt Q9NWZ3); type: functional
[29] = target: Calcium/calmodulin-dependent protein kinase type 1 (Homo sapiens, UniProt Q14012); type: functional
[30] = target: Serine/threonine-protein kinase pim-2 (Homo sapiens, UniProt Q9P1W9); type: functional;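 further: value comes from a broad kinase panel profiling study in which PIM2 was one of the panel members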
[31] = target: 3-phosphoinositide-dependent protein kinase 1 (Homo sapiens, UniProt O15530); type: functional;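 further: value comes from the Navigating the Kinome panel, PDPK1 member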
[32] = target: Vascular endothelial growth factor receptor 1 (Homo sapiens, UniProt P17948); type: functional;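 further: measured within a kinome-wide profiling panel, FLT1 as the panel member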
[33] = target: Macrophage colony-stimulating factor 1 receptor (Homo sapiens, UniProt P07333); type: functional;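 further: value comes from the Navigating the Kinome screening panel, CSF1R member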
Macrophage colony-stimulating factor 1 receptor, sequence (P07333 whole entry): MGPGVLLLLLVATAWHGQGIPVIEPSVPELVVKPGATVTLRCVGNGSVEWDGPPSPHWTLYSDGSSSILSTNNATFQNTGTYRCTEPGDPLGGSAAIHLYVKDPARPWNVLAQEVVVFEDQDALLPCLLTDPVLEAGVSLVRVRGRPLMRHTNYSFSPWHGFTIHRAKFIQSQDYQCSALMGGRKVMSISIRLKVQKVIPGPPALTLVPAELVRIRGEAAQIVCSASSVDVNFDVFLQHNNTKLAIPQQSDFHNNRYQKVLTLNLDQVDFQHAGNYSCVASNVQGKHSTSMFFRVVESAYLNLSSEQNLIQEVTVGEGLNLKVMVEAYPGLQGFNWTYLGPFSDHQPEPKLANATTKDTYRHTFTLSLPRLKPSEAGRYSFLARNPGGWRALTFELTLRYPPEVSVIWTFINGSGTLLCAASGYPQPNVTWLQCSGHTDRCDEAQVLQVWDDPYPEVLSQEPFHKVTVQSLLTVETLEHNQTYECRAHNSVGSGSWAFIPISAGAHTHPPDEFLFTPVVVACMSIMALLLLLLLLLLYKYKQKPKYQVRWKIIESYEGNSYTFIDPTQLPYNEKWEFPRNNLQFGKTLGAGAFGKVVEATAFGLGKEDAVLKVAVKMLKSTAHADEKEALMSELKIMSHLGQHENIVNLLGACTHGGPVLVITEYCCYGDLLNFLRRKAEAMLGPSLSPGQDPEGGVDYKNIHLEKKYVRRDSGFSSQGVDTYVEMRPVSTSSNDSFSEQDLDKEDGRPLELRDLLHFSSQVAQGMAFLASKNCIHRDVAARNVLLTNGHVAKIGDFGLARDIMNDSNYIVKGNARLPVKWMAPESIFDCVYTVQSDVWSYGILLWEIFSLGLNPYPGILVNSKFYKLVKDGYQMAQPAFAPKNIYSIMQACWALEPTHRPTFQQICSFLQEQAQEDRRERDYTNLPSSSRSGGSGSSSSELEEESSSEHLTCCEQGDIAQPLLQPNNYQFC

[34] = target: Tyrosine-protein kinase FRK (Homo sapiens, UniProt P42685); type: functional;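 further: FRK tested as one member of a kinome panel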
[35] = growth suppression of beta-catenin-knockout colon cells, dose response, cell-based, HCT116, human colon tumor (AID 1045); type: functional;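 further: HCT116 colon tumor cells with beta catenin knocked out; cells exposed to compound for 60 hours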
[36] = test system: BJ; assay: cytotoxicity toward BJ-TERT-LT-ST fibroblasts, dose response, cell-based, RAS-independent, luminescence (AID 1935); type: functional; conditions: Homo sapiens;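 further: BJ fibroblasts immortalized with TERT plus LT and ST oncogenes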
[37] = cytotoxicity toward DRD oncogenic fibroblasts, dose response, cell-based, non-viral oncogenic, luminescence (AID 1934); type: functional; conditions: Homo sapiens
[38] = target: C-C chemokine receptor type 6 (Homo sapiens, UniProt P51684); assay: CCR6 receptor antagonists, dose response, cell-based, luminescent beta-arrestin readout (AID 504728); type: functional
[39] = target: Beta-galactosidase (Escherichia coli, UniProt Q8VNN2); assay: beta-galactosidase enzyme inhibitors and activators, dose response, artefact control for CCR6 antagonist project, biochemical, E. coli enzyme, set 3 (AID 504712); type: functional

CC(=O)N(C1=C(Cl)C(=O)c2ccccc2C1=O)C1CCCCC1
EC50 [1]: 9.51 µM (active) | IC50 [2]: 0.802 µM (active) | IC50 [3]: 5.3 µM (active) | IC50 [4]: 38.3 µM (active)

Oc1ccc(-c2cn3c(n2)SCC3)cc1O
EC50 [5]: 22.1 µM (active) | EC50 [6]: 21 µM (active)

O=C1Nc2ccc3ncsc3c2C1=CNc1ccc(S(=O)(=O)Nc2ccccn2)cc1
Ki [7]: 0.0398 µM (active) | Ki [8]: 0.158 µM (active) | Ki [9]: 1.26 µM (active) | Ki [10]: 0.0501 µM (active) | Ki [11]: 0.2 µM (active) | Ki [12]: 0.0501 µM (active) | Ki [13]: 0.126 µM (active) | Ki [14]: 1.26 µM (active) | Ki [15]: 0.501 µM (active) | Ki [16]: 0.0794 µM (active) | Ki [17]: 0.0251 µM (active) | Ki [18]: 0.0251 µM (active) | Ki [19]: 2.51 µM (active) | Ki [20]: > 2 µM (inactive) | Ki [21]: 0.316 µM (active) | Ki [22]: 0.0398 µM (active) | Ki [23]: 0.158 µM (active) | Ki [24]: 0.00398 µM (active) | Ki [25]: > 1.58 µM (inactive) | Ki [26]: 0.158 µM (active) | Ki [27]: 0.00398 µM (active) | Ki [28]: 1.58 µM (active) | Ki [29]: > 1.26 µM (inactive) | Ki [30]: 1 µM (active) | Ki [31]: 0.0158 µM (active) | Ki [32]: 0.01 µM (active) | Ki [33]: 0.251 µM (active) | Ki [34]: 0.0316 µM (active)

Cc1ccc(NC2=C/C(=N\S(=O)(=O)c3cccs3)c3ccccc3C2=O)c(C)c1
EC50 [35]: 1.08 µM (active) | EC50 [36]: 4.42 µM (inconclusive) | EC50 [37]: 5.14 µM (active) | IC50 [38]: > 66.6 µM (inactive) | IC50 [39]: > 66.6 µM (inactive)
